Reference: patent US20180100859A1, “SURROGATE FUNCTIONAL BIOMARKER FOR SOLID TUMOR CANCER” (EUTROPICS PHARMACEUTICALS, INC., priority 2015, published 2018)

How the values were obtained:
Format in all cases: cell-based
Molm 13 cells = experiment: Mitochondrial (BH3) profiling, Bcl-xL priming; conditions: Molm 13 leukemia cell line, FIG. 3
DHL-6 cells = experiment: Mitochondrial (BH3) profiling, Bcl-xL priming; conditions: DHL-6 leukemia cell line, compared with Molm 13, FIG. 3
AHR cells = experiment: Mitochondrial (BH3) profiling, Bcl-xL priming; conditions: AHR leukemia cell line, FIG. 3
Source text: The Bcl-xL/Bim heterodimer (HSBXB) can be detected by flow cytometry using a method for intracellular staining with the HSBXB antibody. Three leukemia cell lines, AHR, DHL6 and MOLM 13 were chosen based on their having differing amounts of Bcl-xL, Bim priming as determined by mitochondrial profiling. Consequently, the response to the Bcl-xL restricted, the Bcl-xL/Bim dimer “priming”, is known to be present at different amounts. A high signal mediated by Hrk-BH3 peptide indicates the existence of Bcl-xL/Bim heterodimer.
The HSBXB signal was assessed by flow cytometry and compared to the Hrk-BH3 peptide signal in the BH3 profiling assay. Here, AHR, DHL6 and MOLM13 cells were incubated on ice for 3 hours, and then washed and incubated with HSBXB antibody or Bcl-xL antibody at 10 ug/ml for 20 minutes, and then washed and stained with secondary Alexa488-conjugated goat anti-mouse. Signals were corrected to IgG-2A isotype or secondary alone control. The Hrk-BH3 signal in the mitochondrial profiling of the three cell lines was plotted against normalized HSBXB FACS signal.

[1] = target: Bcl-xL/Bim heterodimer in SKBR3 breast cancer cells (Homo sapiens, UniProt Q07817); experiment: Detection of Bcl-xL/Bim heterodimer with ANTI-HSBXB antibody in treated breast cancer cells, LI-COR imager
Chain of Bcl-xL/Bim heterodimer in SKBR3 breast cancer cells (Q07817 whole entry, one chain of several): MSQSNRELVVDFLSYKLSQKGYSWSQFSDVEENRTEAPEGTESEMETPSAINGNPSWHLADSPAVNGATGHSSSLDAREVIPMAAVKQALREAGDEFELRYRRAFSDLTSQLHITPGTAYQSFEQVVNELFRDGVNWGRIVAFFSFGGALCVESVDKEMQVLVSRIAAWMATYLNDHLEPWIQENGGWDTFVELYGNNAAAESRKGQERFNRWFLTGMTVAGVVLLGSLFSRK
Method: ABT-263 is a pro-apoptotic compound that can be used on whole cells to disrupt BH3 mediated interactions. Disruption of these heterodimers in treated cells is detected as loss of ANTI-HSBXB signal. Here the cells were treated with various concentrations of ABT-263 for 10 hours at 37° C., then rinsed, fixed with 4% PFA, and incubated with ANTI-HSBXB (a Bcl-xL/Bim heterodimer-specific antibody). IRDye 800CW goat anti-mouse antibody was used to detect the heterodimer specific mouse monoclonal antibody, and IRDye 800CW Goat anti-rabbit antibody was used to detect a commercial Bcl-xL rabbit monoclonal antibody. Cell numbers were normalized by using CellTag 700 Stain.

time window where the disruption can be detected prior to caspase mediated membrane disruption [1] [h]	Compound	degree of Bcl-xL priming relative to positive control (Molm 13 cells)	degree of Bcl-xL priming relative to positive control (DHL-6 cells)	degree of Bcl-xL priming relative to positive control (AHR cells)	percent heterodimer specific signal (ANTI-HSBXB detection) ([1]; various concentrations, 10 hours at 37° C., FIG. 2)
	Hrk-BH3: BH3 peptide HRK, SSAAQLTAARLKALGDELHQ, SEQ ID NO 8; Bcl-xL restricted (listed as Homo sapiens)	less than 5%	slightly higher	above 60%	
10 to 12	CC1(C)CCC(c2ccc(Cl)cc2)=C(CN2CCN(c3ccc(C(=O)NS(=O)(=O)c4ccc(N[C@H](CCN5CCOCC5)CSc5ccccc5)c(S(=O)(=O)C(F)(F)F)c4)cc3)CC2)C1 [ABT-263]				decreasing the quantity of ANTI-HSBXB detection
